Legend:
[1] = target: T1, Cytochrome P450 11B1, mitochondrial (Homo sapiens, UniProt P15538); test: Inhibition of human CYP11B1 expressed in hamster V79MZh cells using [1,2-3H]-11-deoxycorticosterone as substrate
T1 sequence (P15538 whole entry): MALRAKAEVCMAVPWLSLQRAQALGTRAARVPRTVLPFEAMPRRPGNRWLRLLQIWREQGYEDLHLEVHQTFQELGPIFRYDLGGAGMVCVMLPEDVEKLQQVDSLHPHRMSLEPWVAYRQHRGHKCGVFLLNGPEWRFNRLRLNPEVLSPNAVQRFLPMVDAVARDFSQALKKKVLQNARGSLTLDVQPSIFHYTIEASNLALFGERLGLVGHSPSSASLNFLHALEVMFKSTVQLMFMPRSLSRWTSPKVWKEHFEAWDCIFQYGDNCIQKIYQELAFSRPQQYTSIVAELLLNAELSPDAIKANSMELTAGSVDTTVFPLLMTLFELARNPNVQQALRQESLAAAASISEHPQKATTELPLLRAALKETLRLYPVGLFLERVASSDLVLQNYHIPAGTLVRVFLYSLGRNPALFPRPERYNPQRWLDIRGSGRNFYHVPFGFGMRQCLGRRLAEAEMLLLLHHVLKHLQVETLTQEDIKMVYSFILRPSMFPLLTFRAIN

[2] = target: T2, Cytochrome P450 11B2, mitochondrial (Homo sapiens, UniProt P19099); test: Inhibition of human CYP11B2 expressed in hamster V79MZh cells using [1,2-3H]-11-deoxycorticosterone as substrate
T2 sequence (P19099 whole entry): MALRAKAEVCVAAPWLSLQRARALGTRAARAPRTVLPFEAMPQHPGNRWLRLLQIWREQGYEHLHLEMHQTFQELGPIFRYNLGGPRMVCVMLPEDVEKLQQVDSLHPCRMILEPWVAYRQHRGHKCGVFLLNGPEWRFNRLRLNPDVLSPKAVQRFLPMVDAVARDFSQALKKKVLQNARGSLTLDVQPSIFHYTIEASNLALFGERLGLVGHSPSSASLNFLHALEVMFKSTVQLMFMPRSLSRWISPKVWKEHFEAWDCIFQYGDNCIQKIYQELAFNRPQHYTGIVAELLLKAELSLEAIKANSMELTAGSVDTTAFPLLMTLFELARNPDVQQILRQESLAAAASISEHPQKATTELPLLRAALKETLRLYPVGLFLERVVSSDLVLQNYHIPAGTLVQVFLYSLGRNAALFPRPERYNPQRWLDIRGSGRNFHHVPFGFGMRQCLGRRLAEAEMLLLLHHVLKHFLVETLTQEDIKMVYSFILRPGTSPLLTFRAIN

CYP19 (aromatase) = target: T3, CYP19 (aromatase) (Homo sapiens, UniProt P11511); test: Inhibition of human placental CYP19 using [1beta-3H]androstenedione as substrate at 2 uM by 3H2O-method; settings: human placental CYP19, probe [1beta-3H]androstenedione
T3 sequence (P11511 whole entry): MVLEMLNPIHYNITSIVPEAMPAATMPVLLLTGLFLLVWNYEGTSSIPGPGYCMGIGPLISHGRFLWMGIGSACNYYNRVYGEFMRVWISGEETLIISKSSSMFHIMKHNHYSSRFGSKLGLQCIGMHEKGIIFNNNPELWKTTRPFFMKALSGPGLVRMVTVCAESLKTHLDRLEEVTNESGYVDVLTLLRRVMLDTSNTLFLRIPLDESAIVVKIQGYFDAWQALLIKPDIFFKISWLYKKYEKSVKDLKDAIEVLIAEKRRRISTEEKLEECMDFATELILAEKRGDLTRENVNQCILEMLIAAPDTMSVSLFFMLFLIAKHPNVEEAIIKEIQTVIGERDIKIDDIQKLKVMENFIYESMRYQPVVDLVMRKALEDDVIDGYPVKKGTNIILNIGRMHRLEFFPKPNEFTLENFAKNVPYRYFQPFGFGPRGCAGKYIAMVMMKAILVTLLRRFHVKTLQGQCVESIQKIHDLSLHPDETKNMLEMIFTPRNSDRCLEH

V79MZh [3] = test: Selectivity ratio of IC50 for human placental CYP19 to IC50 for human CYP11B1 expressed in hamster V79MZh cells; assay type: cell-based
V79MZh [4] = test: Selectivity ratio of IC50 for human CYP17 expressed in Escherichia coli to IC50 for human CYP11B1 expressed in hamster V79MZh cells
CYP17 = target: T4, CYP17 (Homo sapiens, UniProt P05093); test: Inhibition of human CYP17 expressed in Escherichia coli using progesterone as substrate at 2 uM; settings: probe progesterone
T4 sequence (P05093 whole entry): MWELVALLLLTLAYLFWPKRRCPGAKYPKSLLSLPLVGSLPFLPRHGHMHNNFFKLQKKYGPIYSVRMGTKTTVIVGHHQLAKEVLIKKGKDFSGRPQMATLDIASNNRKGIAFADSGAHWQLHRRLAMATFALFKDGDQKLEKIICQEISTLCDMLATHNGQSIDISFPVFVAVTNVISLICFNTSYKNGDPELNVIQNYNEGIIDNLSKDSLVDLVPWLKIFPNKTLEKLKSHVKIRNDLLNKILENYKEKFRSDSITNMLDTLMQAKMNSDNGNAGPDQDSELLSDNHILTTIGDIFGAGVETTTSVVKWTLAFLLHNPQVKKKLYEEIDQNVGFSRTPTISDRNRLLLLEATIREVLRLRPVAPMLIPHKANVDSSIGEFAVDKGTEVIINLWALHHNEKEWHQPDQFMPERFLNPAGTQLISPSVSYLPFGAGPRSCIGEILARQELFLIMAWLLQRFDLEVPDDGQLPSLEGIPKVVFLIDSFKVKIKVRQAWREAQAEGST

[5] = Half life in human liver S9 fraction by LC-MS/MS analysis; assay type: ADME, subcellular
Salmonella typhimurium [6] = test: Mutagenicity in Salmonella typhimurium TA7001/7002/7003/7004/7005/7006 up to 100 uM by Ames II assay; assay type: toxicity, organism-based; settings: salmonella enterica subsp. enterica serovar typhimurium
Salmonella typhimurium [7] = test: Mutagenicity in Salmonella typhimurium TA98 up to 100 uM by Ames II assay; assay type: toxicity, organism-based; settings: salmonella enterica subsp. enterica serovar typhimurium
Salmonella typhimurium [8] = test: Mutagenicity in Salmonella typhimurium TA7001/7002/7003/7004/7005/7006 up to 100 uM by Ames II assay in presence of S9 fraction; assay type: toxicity, organism-based; settings: salmonella enterica subsp. enterica serovar typhimurium
Salmonella typhimurium [9] = test: Mutagenicity in Salmonella typhimurium TA98 up to 100 uM by Ames II assay in presence of S9 fraction; assay type: toxicity, organism-based; settings: salmonella enterica subsp. enterica serovar typhimurium
[10] = Half life in human plasma by LC-MS/MS analysis; assay type: ADME, cell-free

Row | IC50 [1] [nM] | IC50 [2] [nM] | Compound | also measured
1 | 1170 |  | O=S(=O)(C1CCCCC1)N1CCCc2cc(-c3cccnc3)ccc21 | 
2 | 309 | 607 | O=S(=O)(c1cccc(C(F)(F)F)c1)N1CCCc2cc(-c3cccnc3)ccc21 | 
3 | 382 | 322 | O=S(=O)(c1cccc(OC(F)(F)F)c1)N1CCCc2cc(-c3cccnc3)ccc21 | 
4 | 2000 |  | COc1cccc(S(=O)(=O)N(Cc2ccccc2)c2ccc(-c3cccnc3)cc2)c1 | 
5 | 26 | 205 | Cc1cccc(S(=O)(=O)N2CCCc3cc(-c4cccnc4)ccc32)c1 | inhibition at 2 µM (CYP19 (aromatase)): 29%; Ratio IC50 (V79MZh [3]): > 60; Ratio IC50 (V79MZh [4]): > 60; inhibition at 2 µM (CYP17): 9%
6 | 1750 |  | COc1cccc(S(=O)(=O)N2CCc3cc(-c4ccncc4)cnc32)c1 | 
7 | 663 |  | O=S(=O)(c1ccc2ccccc2c1)N1CCCc2cc(-c3cccnc3)ccc21 | 
8 | 137 | 469 | O=S(=O)(c1ccc(Cl)cc1)N1CCCc2cc(-c3cccnc3)ccc21 | 
9 | 62 | 344 | O=S(=O)(c1cccc(Cl)c1)N1CCCc2cc(-c3cccnc3)ccc21 | 
10 | 587 |  | COc1cccc(S(=O)(=O)N2CCc3cc(-c4cccnc4)cnc32)c1 | 
11 | 188 | 850 | COc1cccc(S(=O)(=O)Nc2ccc(-c3cccnc3)cc2)c1 | 
12 | 68 | 239 | COc1cccc(S(=O)(=O)N(C)c2ccc(-c3cccnc3)cc2)c1 | 
13 | 65 | 429 | N#Cc1cccc(S(=O)(=O)N2CCCc3cc(-c4cccnc4)ccc32)c1 | 
14 | 929 |  | O=S(=O)(c1ccc(OC(F)(F)F)cc1)N1CCCc2cc(-c3cccnc3)ccc21 | 
15 | 114 | 557 | N#Cc1ccc(S(=O)(=O)N2CCCc3cc(-c4cccnc4)ccc32)cc1 | 
16 |  |  | CC(C)(C(=O)c1cccnc1)c1cccnc1 [METYRAPONE] | half-life [5]: 49 min
17 | 28 | 85 | COc1cccc(S(=O)(=O)N2CCCc3cc(-c4cccnc4)ccc32)c1 | inhibition at 2 µM (CYP19 (aromatase)): 32%; Ratio IC50 (V79MZh [3]): > 60; Ratio IC50 (V79MZh [4]): > 60; inhibition at 2 µM (CYP17): 11%
18 | 5 | 8 | COc1cccc(S(=O)(=O)N2CCCc3cc(Cc4cccnc4)ccc32)c1 | Activity (Salmonella typhimurium [6]): Non-toxic; Activity (Salmonella typhimurium [7]): Non-toxic; inhibition at 2 µM (CYP19 (aromatase)): 26%; Activity (Salmonella typhimurium [8]): Non-toxic; Ratio IC50 (V79MZh [3]): > 60; half-life [5]: 16 min; Ratio IC50 (V79MZh [4]): > 60; inhibition at 2 µM (CYP17): 9%; Activity (Salmonella typhimurium [9]): Non-toxic; half-life [10]: > 150 min
19 | 111 | 251 | COc1cccc(S(=O)(=O)N2CCc3cc(-c4cccnc4)ccc32)c1 | 
20 | > 5000 |  | COc1cccc(S(=O)(=O)N2CCCc3cc(-c4ccncc4)ccc32)c1 | 
21 | 1220 |  | O=S(=O)(c1ccc(C(F)(F)F)cc1)N1CCCc2cc(-c3cccnc3)ccc21 | 
22 | 6 | 5 | COc1cccc(S(=O)(=O)N2CCCc3cc(Cc4ccncc4)ccc32)c1 | inhibition at 2 µM (CYP19 (aromatase)): 88%; Ratio IC50 (V79MZh [3]): > 60; Ratio IC50 (V79MZh [4]): > 60; inhibition at 2 µM (CYP17): 14%
23 | 60 | 259 | O=S(=O)(c1cccs1)N1CCCc2cc(-c3cccnc3)ccc21 | 
24 | 71 | 196 | O=S(=O)(c1cccc(F)c1)N1CCCc2cc(-c3cccnc3)ccc21 | 
25 | 49 | 260 | O=S(=O)(c1ccc(F)cc1)N1CCCc2cc(-c3cccnc3)ccc21 | 
26 | 327 | 850 | O=S(=O)(c1cccc(F)c1)N1CCc2cc(-c3cccnc3)ccc21 | 
27 | 278 | 555 | Cc1ccc(S(=O)(=O)N2CCCc3cc(-c4cccnc4)ccc32)cc1 | 
28 | 334 | 519 | COc1ccc(S(=O)(=O)N2CCCc3cc(-c4cccnc4)ccc32)cc1 | 
29 | 65 | 295 | O=S(=O)(c1ccccc1)N1CCCc2cc(-c3cccnc3)ccc21 | 

Reference: ChEMBL document CHEMBL3351445, “Potent 11β-hydroxylase inhibitors with inverse metabolic stability in human plasma and hepatic S9 fractions to promote wound healing” (J Med Chem, 2014)
